Experimental data reported in patent US8293738B2, “Indazole inhibitors of kinase” (Abbott Laboratories, priority 2010, dated 2012).

Legend:
[1] = biological target: T1, Aurora B (Homo sapiens, UniProt Q96GD4); experiment: Aurora B enzyme assay (time-resolved fluorescence, histone H3 peptide); assay type: biochemical; details: 1 mM ATP, 1 hour
T1 construct: Active Aurora B enzyme (recombinant residues 1-344)
Method: To determine Aurora B activity of representative compounds of the invention, Active Aurora B enzyme (recombinant residues 1-344) and INCENP (recombinant GST fusion protein (Upstate)) were incubated in wells of a 384 well plate with biotinylted histone H3 peptide residues 1-21 (Upstate), 1 mM ATP, and various concentrations of inhibitors in a HEPES buffer, pH 7.4 containing MgCl2, sodium othrovanadate, and Triton X-100. After 1 hour, the reaction was stopped with EDTA and anti-phospho-histone H3 Europium Cryptate (Cis-Bio) and SA-APC (Phycolink, Prozyme) were added to detect the phosphopeptide. The amount of phosphorylation was determined by the time-resolved fluorescence ratio of signals at 665 nm and 615 nm. The IC50's were calculated by an exponential fit of the inhibition values with the inhibitor concentrations using Assay Explorer software.

[2] = biological target: T2, Aurora A (Homo sapiens, UniProt O14965); experiment: Aurora A enzyme assay (time-resolved fluorescence, STK substrate-2); assay type: biochemical; details: 1 mM ATP, 1 hour
T2 sequence (O14965 1-403): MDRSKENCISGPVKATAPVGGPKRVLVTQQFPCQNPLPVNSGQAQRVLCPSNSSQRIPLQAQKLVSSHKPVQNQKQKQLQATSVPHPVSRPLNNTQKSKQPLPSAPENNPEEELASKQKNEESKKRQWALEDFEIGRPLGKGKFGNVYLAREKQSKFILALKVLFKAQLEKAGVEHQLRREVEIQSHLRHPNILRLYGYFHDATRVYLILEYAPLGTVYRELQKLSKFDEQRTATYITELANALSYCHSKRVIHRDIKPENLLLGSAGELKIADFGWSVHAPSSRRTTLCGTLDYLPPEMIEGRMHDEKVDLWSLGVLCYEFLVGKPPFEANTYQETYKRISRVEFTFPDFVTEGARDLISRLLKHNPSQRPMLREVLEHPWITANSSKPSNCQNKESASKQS
Method: To determine Aurora A and C activity of representative compounds of the invention, Active Aurora A or C enzyme was incubated in wells of a 384 well plate with biotinylated STK substrate-2 (Upstate), 1 mM ATP, and various concentrations of inhibitors in a Hepes buffer, pH 7.4 containing MgCl2, sodium othrovanadate, and Triton X-100. After 1 hour, the reaction was stopped with EDTA and anti-phospho-STK antibody Europium Cryptate (Upstate) and SA-XL665 (Upstate) were added to detect the phosphopeptide. The amount of phosphorylation was determined by the time-resolved fluorescence ratio of signals at 665 nm and 615 nm. The IC50s were calculated by an exponential fit of the inhibition values with the inhibitor concentrations using Assay Explorer software.

[3] = biological target: T3, KDR (Homo sapiens, UniProt P35968); experiment: KDR cell assay; assay type: cell-based
Target sequence in this assay (P35968 20-1356, species assumed): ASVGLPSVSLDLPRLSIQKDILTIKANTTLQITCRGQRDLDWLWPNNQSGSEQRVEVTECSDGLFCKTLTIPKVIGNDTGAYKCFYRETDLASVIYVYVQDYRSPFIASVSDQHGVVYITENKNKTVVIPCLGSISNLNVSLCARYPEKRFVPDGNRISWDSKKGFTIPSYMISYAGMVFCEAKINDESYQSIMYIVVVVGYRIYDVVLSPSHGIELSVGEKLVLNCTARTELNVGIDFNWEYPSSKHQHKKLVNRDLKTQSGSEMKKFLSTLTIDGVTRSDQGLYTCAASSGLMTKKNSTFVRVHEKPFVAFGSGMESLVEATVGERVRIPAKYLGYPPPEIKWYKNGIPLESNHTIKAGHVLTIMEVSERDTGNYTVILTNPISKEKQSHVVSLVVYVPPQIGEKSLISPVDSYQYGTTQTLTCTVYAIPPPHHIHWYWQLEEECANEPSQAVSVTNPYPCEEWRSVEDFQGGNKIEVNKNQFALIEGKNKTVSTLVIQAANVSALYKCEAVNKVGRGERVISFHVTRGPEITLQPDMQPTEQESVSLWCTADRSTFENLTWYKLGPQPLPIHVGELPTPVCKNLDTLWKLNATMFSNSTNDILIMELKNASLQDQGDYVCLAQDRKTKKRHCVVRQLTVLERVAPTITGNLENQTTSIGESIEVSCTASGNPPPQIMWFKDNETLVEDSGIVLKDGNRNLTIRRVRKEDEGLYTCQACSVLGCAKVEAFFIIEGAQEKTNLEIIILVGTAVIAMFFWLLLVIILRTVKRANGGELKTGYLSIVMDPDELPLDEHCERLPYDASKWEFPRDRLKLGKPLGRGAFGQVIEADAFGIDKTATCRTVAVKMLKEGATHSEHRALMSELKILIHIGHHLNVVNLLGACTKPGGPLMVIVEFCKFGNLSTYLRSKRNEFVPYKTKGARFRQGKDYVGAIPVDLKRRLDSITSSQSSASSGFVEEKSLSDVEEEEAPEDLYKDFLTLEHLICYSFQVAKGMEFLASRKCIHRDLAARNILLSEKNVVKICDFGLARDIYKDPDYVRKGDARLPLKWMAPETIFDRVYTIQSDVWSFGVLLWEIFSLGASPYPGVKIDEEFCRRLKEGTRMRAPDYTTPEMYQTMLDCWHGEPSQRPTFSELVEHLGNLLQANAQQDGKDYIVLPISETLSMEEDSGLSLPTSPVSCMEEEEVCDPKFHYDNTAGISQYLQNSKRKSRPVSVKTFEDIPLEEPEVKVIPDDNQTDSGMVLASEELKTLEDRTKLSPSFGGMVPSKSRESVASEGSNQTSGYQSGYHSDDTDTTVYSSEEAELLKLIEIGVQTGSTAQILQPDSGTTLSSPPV

[4] = test system: H1299 cells (Human Non-Small Cell Lung Carcinoma); experiment: Induction of polyploidy in H1299 cells, high content analysis; assay type: cell-based; details: NCI-H1299 cells, 48 hours, polyploid = nuclear area >750μ2, read-out: Polyploid HCA IC50
Method: To determine the induction of polyploidy in H1299 cells (Human Non-Small Cell Lung Carcinoma), NCI-H1299 were seeded (4K/well) into 96-well culture plates (tissue culture grade, black, flat-clear bottom) and incubated overnight to produce cell-to-plate adherance Inhibitors at varying concentrations were added into duplicate wells containing cells and culture media (RPMI 1640, 10% fetal calf serum) and incubated at 37 C for 48 hours. The plates were then washed with PBS and the adherent cells fixed by incubating with 3% formalin for 1 hour. After washing four times with PBS, the cells were then stained with Hoechst and subjected to fluorescent (3601/460e) microscopic high content analysis to determine the effect of inhibitors on nuclear size. Polyploid cells (>4N) were defined as those having nuclear area >750μ2. […]

[5] = biological target: T3, KDR; experiment: KDR HTRF in vitro kinase assay; assay type: biochemical; set-up: purified enzyme (His6-KDR 789-1354, MW 63 kD); details: 1 mM ATP, 60 minutes
Method: To determine the activity of the various kinases, a homogenous time-resolved fluorescence (HTRF) in vitro kinase assay was used. (Mathis, G., HTRF(R) Technology. J Biomol Screen, 1999. 4(6): p. 309-314; Alfred J. Kolb, Paul V. Kaplita, David J. Hayes, Young-Whan Park, Christine Pernell, John S. Major and Gerard Mathis, Drug Discovery Today, 1998, 3, 333-342.)
For example for KDR, 7 ng/well of purified enzyme (His6-KDR 789-1354, MW 63 kD) was mixed with 0.5 μM N-biotinylated substrate (Biotin-Ahx-AEEEYFFLA-amide (SEQ. ID. 1)), various concentrations of inhibitor in reaction buffer (50 mM HEPES, pH 7.1, mM MgCl2, 2 mM MnCl2, 0.1% BSA and 1 mM DTT, […] final volume), ATP (1 mM final conc.) in a black 384-well plate. After 60 minutes incubation at room temperature, the reaction was quenched by addition of a buffered EDTA solution (final approximate concentrations: 30 mM EDTA, 0.1% BSA, 0.1% Triton X-100 and 0.24M KF) and a solution of revelation agents (to give 0.084 ng/well streptavidin-XL-665 (Cis-Bio) and 6.5 ng/well antiphsophotyrosine mAb PT66-K Europium kryptate) was added to the reaction mixture. The quenched reaction was allowed to stand at room temperature for 3 hours and was then read in a time-resolved fluorescence detector (InVision, Perkin-Elmer) at 620 nm and 665 nm sequentially with excitation. The ratio between the signal of 620 nm and 665 nm was used in the calculation of the IC50.
Target sequence in this assay (P35968 789-1354): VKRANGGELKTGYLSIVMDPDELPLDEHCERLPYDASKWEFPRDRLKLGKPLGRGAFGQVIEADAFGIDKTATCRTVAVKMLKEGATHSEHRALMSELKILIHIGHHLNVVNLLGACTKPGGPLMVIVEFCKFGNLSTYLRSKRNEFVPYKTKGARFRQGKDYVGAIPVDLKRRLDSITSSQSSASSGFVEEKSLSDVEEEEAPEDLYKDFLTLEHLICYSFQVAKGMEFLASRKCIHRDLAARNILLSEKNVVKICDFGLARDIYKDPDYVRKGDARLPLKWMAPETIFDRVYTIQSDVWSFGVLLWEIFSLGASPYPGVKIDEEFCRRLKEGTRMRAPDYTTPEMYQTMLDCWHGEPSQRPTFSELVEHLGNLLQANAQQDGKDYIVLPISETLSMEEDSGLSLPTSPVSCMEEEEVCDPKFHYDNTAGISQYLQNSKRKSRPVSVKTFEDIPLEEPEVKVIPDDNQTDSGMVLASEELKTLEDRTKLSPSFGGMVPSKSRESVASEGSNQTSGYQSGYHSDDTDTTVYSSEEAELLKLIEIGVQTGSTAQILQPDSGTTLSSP

T1 sequence (Q96GD4 whole entry, the tested form may be a part): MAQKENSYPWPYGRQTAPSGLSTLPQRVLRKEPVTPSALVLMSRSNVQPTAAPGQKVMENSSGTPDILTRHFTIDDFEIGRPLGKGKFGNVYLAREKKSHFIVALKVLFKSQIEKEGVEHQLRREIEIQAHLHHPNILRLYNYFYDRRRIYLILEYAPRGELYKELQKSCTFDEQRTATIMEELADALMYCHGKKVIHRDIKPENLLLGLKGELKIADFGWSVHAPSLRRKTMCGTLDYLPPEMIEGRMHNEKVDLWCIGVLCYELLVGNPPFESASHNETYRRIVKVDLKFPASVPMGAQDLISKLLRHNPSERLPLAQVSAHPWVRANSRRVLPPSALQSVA
T1 sequence (Q9NQS7 826-918 partner limits assumed): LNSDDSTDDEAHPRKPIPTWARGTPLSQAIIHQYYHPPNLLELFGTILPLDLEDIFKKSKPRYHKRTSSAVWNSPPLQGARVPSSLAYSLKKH

Structure (SMILES) | IC50 [1] [nM] | IC50 [2] [nM] | IC50 [3] [nM] | IC50 [4] [nM] | IC50 [5] [nM]
O=C(Nc1ccc(-c2ccc3c(-c4cnn(C5CCNCC5)c4)n[nH]c3c2)cc1)Nc1cccc(F)c1 [Example 16, N-(3-fluorophenyl)-N′-{4-[3-(1-piperidin-4-yl-1H-pyrazol-4-yl)-1H-indazol-6-yl]phenyl}urea] | 10.9 | > 12500 | 135 | 216 | 44.6
O=C(Nc1ccc(-c2ccc3c(-c4cn[nH]c4)n[nH]c3c2)cc1)Nc1cccc(F)c1 [Example 9, N-(3-fluorophenyl)-N′-{4-[3-(1H-pyrazol-4-yl)-1H-indazol-6-yl]phenyl}urea] | 32.7 | 221 | 300 | 14 | 76.3
Cn1cc(-c2n[nH]c3cc(-c4ccc(NC(=O)Nc5ccccc5Cl)cc4)ccc23)cn1 [Example 23, N-(2-chlorophenyl)-N′-{4-[3-(1-methyl-1H-pyrazol-4-yl)-1H-indazol-6-yl]phenyl}urea] | 24.9 | 246 | 355 | 10 | 80.7
O=C(Nc1ccc(-c2ccc3c(-c4cnn(CCN5CCOCC5)c4)n[nH]c3c2)cc1)Nc1cccc(F)c1 [Example 6, N-(3-fluorophenyl)-N′-(4-{3-[1-(2-morpholin-4-ylethyl)-1H-pyrazol-4-yl]-1H-indazol-6-yl}phenyl)urea] | 21.2 | 1000 | 187 | 18 | 86.1
Cc1cccc(NC(=O)Nc2ccc(-c3ccc4c(-c5cnn(CCO)c5)n[nH]c4c3)cc2)c1 [Example 12, N-(4-{3-[1-(2-hydroxyethyl)-1H-pyrazol-4-yl]-1H-indazol-6-yl}phenyl)-N′-(3-methylphenyl)urea] | 44.1 | > 12500 | 176 | 55 | 60
